One sequence from US20160251402A1, “MICROPEPTIDES AND USE OF SAME FOR MODULATING GENE EXPRESSION” (UNIVERSITE PAUL SABATIER TOULOUSE III, priority 2013, published 2016) can be followed below.

This experiment deals with HsmiR155. Description: Relative expression of Pre-miR155 in transfected HeLa cells. Format: cell-based, Homo sapiens. The following applies: HeLa cells transfected to overexpress HsmiPEP155. The source says: The DNA fragments of interest (HsmiPEP155 and the mutated miPEP) were synthesized or amplified by PCR using specific primers, and then cloned using the enzymes XhoI and NotI into a pUAS plasmid permitting their overexpression by means of the GAL4 transcription factor, the expression of which is controlled by a constitutive strong promoter.
The different constructs were produced either by PCR amplification on genomic DNA of HeLa cells, or by RT-PCR on total RNAs of L428 human cells. The amplified PCR fragments are digested with the HindIII/EcoRI restriction enzymes and then cloned into the vector pcDNA3.1. The DH5α strain of Escherichia coli is electroporated and then cultured on a solid medium (2YT+agar+ampicillin). The plasmid DNA from different clones is then prepared and sequenced for verification. The constructs are then prepared using the QIAfilter Plasmid Midi kit (QIAGEN) and stored at −20° C.
The HeLa cells (established tumour line, ATCC CCL-2.2) are cultured in a 6-well plate in complete medium [(DMEM (1x)+Glutamax+4.5 g/L glucose without pyruvate+1x penicillin/streptomycin+1 mM Na-pyruvate+10% calf serum] and placed in an incubator at 37° C. and 5% CO2.
The cells are transfected when they are at 50% confluence. […]
10-15 μg of total RNAs is then analysed by Northern blot on 15% acrylamide gel [solution of acrylamide/40% bis-acrylamide, ratio 19:1], 7M urea in TBE 1x. […]

In the case of “MEMALMVAQTRKGKSVV (listed as Homo sapiens) [HsmiPEP155]”, the “relative expression of Pre-miR155” value is “increases the expression of HsmiR155”.
